Here are results for 5 compounds from PubChem BioAssay AID2060497 (Molecular Pharmacology Branch, DTP, NCI, 2025).

SMILES strings stand for the structures.

The viability, T/C is the ratio of treated to control.
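Further: spheroids exposed to compounds for one week before readout; percent viability relative to DMSO vehicle wells taken as 100%.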

The first assay deals with 317291-083-R-J1-PDC complex spheroids, viability. Briefly: Anticancer human tumor 317291-083-R-J1-PDC patient-derived soft tissue sarcoma cell line growth inhibition [GQUAD]. Particulars: second compound 0.1 µM; first compound 1 µM; hits give low values. The gist of the method: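 Multi-cell-type spheroids of tumor cells with HUVEC and mesenchymal stem cells, treated with drug combinations. Concentrations descend in half-log steps from near clinical Cmax, or from 10 microM where Cmax is unknown; viability read-out.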
Turning to `COc1cc(C2c3cc4c(cc3C(OC3OC5COC(C)OC5C(O)C3O)C3COC(=O)C23)OCO4)cc(OC)c1O` (configuration not stated) + Cc1[nH]c2ccc(F)cc2c1-c1nc2c3cccnc3c3ncccc3c2[nH]1, the viability, T/C was 28.3%.
Turning to `O=C(NO)c1cnc(N2CCN(S(=O)(=O)c3ccc4ccccc4c3)CC2)nc1` + Cc1cnc(CNC(=O)c2c(=O)c3ccc(N4CCCN(C)CC4)nc3n3c2sc2ccccc23)cn1, the viability, T/C was 0.12%.

The same assay, now with this note: second compound 0.1 µM; first compound 3.16 µM; hits give low values.
Regarding `CC(C)(O)C1CCC(Nc2ccc3ncc(-c4cccc(C(F)(F)F)c4)n3n2)CC1` (configuration not stated) + CN(C)c1ccc(Nc2c3ccc(NC(=O)CCN4CCCC4)cc3nc3cc(NC(=O)CCN4CCCC4)ccc23)cc1, the viability, T/C was 0.49%.
`C=CC(=O)N1CCN(c2nc(=O)n(-c3c(C)ccnc3C(C)C)c3nc(-c4c(O)cccc4F)c(F)cc23)C(C)C1` (configuration not stated) + CN(C)c1ccc(Nc2c3ccc(NC(=O)CCN4CCCC4)cc3nc3cc(NC(=O)CCN4CCCC4)ccc23)cc1: the viability, T/C is 91.8%.
Consider `C=CC(=O)N1CCN(c2nc(=O)n(-c3c(C)ccnc3C(C)C)c3nc(-c4c(O)cccc4F)c(F)cc23)C(C)C1` (configuration not stated) + Cc1cnc(CNC(=O)c2c(=O)c3ccc(N4CCCN(C)CC4)nc3n3c2sc2ccccc23)cn1, for which the viability, T/C was 70.1%.
Regarding `COc1cc(C2c3cc4c(cc3C(OC3OC5COC(C)OC5C(O)C3O)C3COC(=O)C23)OCO4)cc(OC)c1O` (configuration not stated) + Cc1[nH]c2ccc(F)cc2c1-c1nc2c3cccnc3c3ncccc3c2[nH]1, the viability, T/C is 17.6%.
Still for that read-out and setting: in the case of `O=C(NO)c1cnc(N2CCN(S(=O)(=O)c3ccc4ccccc4c3)CC2)nc1` + Cc1cnc(CNC(=O)c2c(=O)c3ccc(N4CCCN(C)CC4)nc3n3c2sc2ccccc23)cn1 it was 0.03%.

The same assay, now with this note: second compound 0.1 µM; first compound 10 µM; hits give low values.
Regarding `CC(C)(O)C1CCC(Nc2ccc3ncc(-c4cccc(C(F)(F)F)c4)n3n2)CC1` (configuration not stated) + CN(C)c1ccc(Nc2c3ccc(NC(=O)CCN4CCCC4)cc3nc3cc(NC(=O)CCN4CCCC4)ccc23)cc1, the viability, T/C is 0.46%.
In the case of `C=CC(=O)N1CCN(c2nc(=O)n(-c3c(C)ccnc3C(C)C)c3nc(-c4c(O)cccc4F)c(F)cc23)C(C)C1` (configuration not stated) + CN(C)c1ccc(Nc2c3ccc(NC(=O)CCN4CCCC4)cc3nc3cc(NC(=O)CCN4CCCC4)ccc23)cc1, the viability, T/C was 70.8%.
On to `C=CC(=O)N1CCN(c2nc(=O)n(-c3c(C)ccnc3C(C)C)c3nc(-c4c(O)cccc4F)c(F)cc23)C(C)C1` (configuration not stated) + Cc1cnc(CNC(=O)c2c(=O)c3ccc(N4CCCN(C)CC4)nc3n3c2sc2ccccc23)cn1, for which the viability, T/C was 47.5%.
With `COc1cc(C2c3cc4c(cc3C(OC3OC5COC(C)OC5C(O)C3O)C3COC(=O)C23)OCO4)cc(OC)c1O` (configuration not stated) + Cc1[nH]c2ccc(F)cc2c1-c1nc2c3cccnc3c3ncccc3c2[nH]1, the viability, T/C is 9.83%.
`O=C(NO)c1cnc(N2CCN(S(=O)(=O)c3ccc4ccccc4c3)CC2)nc1` + Cc1cnc(CNC(=O)c2c(=O)c3ccc(N4CCCN(C)CC4)nc3n3c2sc2ccccc23)cn1: the viability, T/C is 0.29%.

The assay is the same for the next values; noted with them: second compound 0.316 µM; first compound 0.0316 µM; hits give low values.
In the case of `CC(C)(O)C1CCC(Nc2ccc3ncc(-c4cccc(C(F)(F)F)c4)n3n2)CC1` (configuration not stated) + CN(C)c1ccc(Nc2c3ccc(NC(=O)CCN4CCCC4)cc3nc3cc(NC(=O)CCN4CCCC4)ccc23)cc1, the viability, T/C is 65.9%.
With `C=CC(=O)N1CCN(c2nc(=O)n(-c3c(C)ccnc3C(C)C)c3nc(-c4c(O)cccc4F)c(F)cc23)C(C)C1` (configuration not stated) + CN(C)c1ccc(Nc2c3ccc(NC(=O)CCN4CCCC4)cc3nc3cc(NC(=O)CCN4CCCC4)ccc23)cc1, the viability, T/C was 81.5%.
Take `C=CC(=O)N1CCN(c2nc(=O)n(-c3c(C)ccnc3C(C)C)c3nc(-c4c(O)cccc4F)c(F)cc23)C(C)C1` (configuration not stated) + Cc1cnc(CNC(=O)c2c(=O)c3ccc(N4CCCN(C)CC4)nc3n3c2sc2ccccc23)cn1: the viability, T/C is 65.7%.
With `COc1cc(C2c3cc4c(cc3C(OC3OC5COC(C)OC5C(O)C3O)C3COC(=O)C23)OCO4)cc(OC)c1O` (configuration not stated) + Cc1[nH]c2ccc(F)cc2c1-c1nc2c3cccnc3c3ncccc3c2[nH]1, the viability, T/C is 113%.
Take `O=C(NO)c1cnc(N2CCN(S(=O)(=O)c3ccc4ccccc4c3)CC2)nc1` + Cc1cnc(CNC(=O)c2c(=O)c3ccc(N4CCCN(C)CC4)nc3n3c2sc2ccccc23)cn1: the viability, T/C was 44.2%.

Staying with this assay, now noted: second compound 0.316 µM; first compound 0.1 µM; hits give low values.
Consider `CC(C)(O)C1CCC(Nc2ccc3ncc(-c4cccc(C(F)(F)F)c4)n3n2)CC1` (configuration not stated) + CN(C)c1ccc(Nc2c3ccc(NC(=O)CCN4CCCC4)cc3nc3cc(NC(=O)CCN4CCCC4)ccc23)cc1, for which the viability, T/C was 65.7%.
`C=CC(=O)N1CCN(c2nc(=O)n(-c3c(C)ccnc3C(C)C)c3nc(-c4c(O)cccc4F)c(F)cc23)C(C)C1` (configuration not stated) + CN(C)c1ccc(Nc2c3ccc(NC(=O)CCN4CCCC4)cc3nc3cc(NC(=O)CCN4CCCC4)ccc23)cc1: the viability, T/C is 69.9%.
For `C=CC(=O)N1CCN(c2nc(=O)n(-c3c(C)ccnc3C(C)C)c3nc(-c4c(O)cccc4F)c(F)cc23)C(C)C1` (configuration not stated) + Cc1cnc(CNC(=O)c2c(=O)c3ccc(N4CCCN(C)CC4)nc3n3c2sc2ccccc23)cn1, the viability, T/C is 68.7%.
Consider `COc1cc(C2c3cc4c(cc3C(OC3OC5COC(C)OC5C(O)C3O)C3COC(=O)C23)OCO4)cc(OC)c1O` (configuration not stated) + Cc1[nH]c2ccc(F)cc2c1-c1nc2c3cccnc3c3ncccc3c2[nH]1, for which the viability, T/C is 92.7%.
For `O=C(NO)c1cnc(N2CCN(S(=O)(=O)c3ccc4ccccc4c3)CC2)nc1` + Cc1cnc(CNC(=O)c2c(=O)c3ccc(N4CCCN(C)CC4)nc3n3c2sc2ccccc23)cn1, the viability, T/C was 45.2%.

Still in this assay, the particulars now being: second compound 0.316 µM; first compound 0.316 µM; hits give low values.
As to `CC(C)(O)C1CCC(Nc2ccc3ncc(-c4cccc(C(F)(F)F)c4)n3n2)CC1` (configuration not stated) + CN(C)c1ccc(Nc2c3ccc(NC(=O)CCN4CCCC4)cc3nc3cc(NC(=O)CCN4CCCC4)ccc23)cc1, the viability, T/C is 72%.
In the case of `C=CC(=O)N1CCN(c2nc(=O)n(-c3c(C)ccnc3C(C)C)c3nc(-c4c(O)cccc4F)c(F)cc23)C(C)C1` (configuration not stated) + CN(C)c1ccc(Nc2c3ccc(NC(=O)CCN4CCCC4)cc3nc3cc(NC(=O)CCN4CCCC4)ccc23)cc1, the viability, T/C is 73.2%.
Regarding `C=CC(=O)N1CCN(c2nc(=O)n(-c3c(C)ccnc3C(C)C)c3nc(-c4c(O)cccc4F)c(F)cc23)C(C)C1` (configuration not stated) + Cc1cnc(CNC(=O)c2c(=O)c3ccc(N4CCCN(C)CC4)nc3n3c2sc2ccccc23)cn1, the viability, T/C is 54.4%.
With `COc1cc(C2c3cc4c(cc3C(OC3OC5COC(C)OC5C(O)C3O)C3COC(=O)C23)OCO4)cc(OC)c1O` (configuration not stated) + Cc1[nH]c2ccc(F)cc2c1-c1nc2c3cccnc3c3ncccc3c2[nH]1, the viability, T/C was 40.6%.
On to `O=C(NO)c1cnc(N2CCN(S(=O)(=O)c3ccc4ccccc4c3)CC2)nc1` + Cc1cnc(CNC(=O)c2c(=O)c3ccc(N4CCCN(C)CC4)nc3n3c2sc2ccccc23)cn1, for which the viability, T/C was 5.28%.
